Measured values from patent US20100310504A1, “METHODS FOR TREATING FIBROSIS BY MODULATING CELLULAR SENESCENCE” (priority 2007, published 2010).
Entries after “also recorded” stand apart in the source; their conditions may differ.

Key:
[1] = tested on: senescent activated HSCs in fibrotic livers; test: Fibrosis reversion and senescent cell clearance in CCl4 treated mice with modified NK cell function; type: in vivo, mouse
Description: Animals. […] GFAP-tTA mice were obtained from the Jackson Laboratory.
Sections were counterstained with Eosin.
Immunoblotting. Liver tissue was lysed in Laemmli buffer using a tissue homogenizer. Equal amounts of protein were separated on 12% SDS-polyacrylamide gels and transferred to PVDF membranes. Detection was performed using anti-αSMA (DakoCytomation, Denmark), anti-13Actin (AC-15, Sigma, USA).
Expression array analysis and quantitative RT-PCR. […] Affymetrix Human Genome U133 Plus 2.0Array were used to identify genes expressed in HSC.
To determine whether NK cells can target senescent cells in vivo and their impact on liver fibrosis, modulating NK cell function was tested for how it would influence the frequency of senescent activated HSCs and fibrosis resolution in livers obtained from mice following a six week course of CCl4 or at various times after ceasing treatment. To deplete NK cells mice were treated with neutralizing antibodies [anti-AsialoGM1 (Radaeva et al., 2006; Xue et al., 2007)] during the period following CCl4 withdrawal. Conversely, to enhance the immune response, we treated mice with polyinosinic-polycytidylic acid (polyI:C), which induces interferon-γ and enhances NK cell activity in the liver (Radaeva et al., 2006).

[2] = tested on: primary human activated HSCs; test: Senescence induction in cultured primary human activated HSCs; type: cell-based; settings: etoposide 100 μM, within several days of treatment
[3] = tested on: liver; settings: mouse, in vivo
Description: Animals. […] Wild type, p53^−/−, INK4a/Arf^−/− and p53^−/−;INK4a/Arf^−/− mice were treated twice a week with 12 consecutive i.p. (intraperitoneal) injections of 1 ml/kg CCl4 to induce liver fibrosis. GFAP-tTA;TRE-shp53 mice were treated similarly for 2 weeks. Animals were sacrificed 48-72 hours after the last injection and their livers used for further analysis. To modify NK cell function, mice were treated three times weekly either i.v. with an anti-Asialo-GM1 antibody (25 μl in 200 μl saline, Wako, Va., USA) for 10 or 20 days or i.p. with polyI:C (Sigma, USA) 1 mg/kg.
Histological analysis. Paraffin embedded tissue sections were stained with hematoxylin-eosin for routine examination, or with Sirius Red for visualization of fibrotic deposition. At least 3 whole sections from each animal were scanned by Laser Scanner Cytometry (CompuCyte, MA) for fibrosis quantification. These images were quantified using NIH ImageJ software (http://rsb.info.nih.gov/ij/). We calculated the amount of fibrotic tissue in diseased animals relatively to the basal amount of Sirius Red staining present in normal liver.
Frozen sections of liver tissue, or adherent cells were fixed with 0.5% Gluteraldehyde in PBS for 15 min, washed with PBS supplemented with 1 mM MgCl2 and stained for 5-6 hrs in PBS containing 1 mM MgCl2, 1 mg/ml X-Gal and 5 mM of each Potassium ferricyanide and Potassium ferrocyanide. Sections were counterstained with Eosin.
To investigate the relationship between fibrosis and cellular senescence, 7-9 week old female mice were subjected to a six week treatment with CCl4, a chemical widely used to induce fibrosis in experimental animals (Bataller and Brenner, 2005, J. Clin. Invest. 115, 209-218, the contents of which are hereby incorporated by reference).

[4] = tested on: senescent IMR-90 cells; test: In vitro killing assay of growing and senescent IMR-90 cells by YT cells (NK cell line); type: cell-based, human; settings: range of target:effector cell ratios
Description: Tissue culture. Human IMR-90 foetal lung fibroblasts (ATCC) and primary human hepatic myofibroblasts (activated HSCs) (Dominion Pharmakine, Spain) were grown in standard conditions (Narita et al., 2003). Senescence was induced by prolonged culturing, etoposide (100 μM, Sigma, USA) treatment, or infection of IMR-90 cells with oncogenic rasV12 as described (Narita et al., 2003). For in vitro cytotoxicity assays, growing or senescent cells were plated in 6-well plates at 50,000 cells per well. 5×10^5 YT cells (from DSMZ, Germany) were subsequently added to target cells. The plates were incubated under normal conditions for 12 hours, and then NK cell cytotoxicity was determined using crystal violet staining of remaining adherent cells or followed with a Zeiss AxioObserver microscope equipped with 37° C. incubator hood and 6.3% CO2 cover.
To test if a Perforin mediated pathway is involved in senescent cell killing in vitro, the in vitro killing assays of growing and senescent IMR-90 cells were used (the assay is described at Krizhanovsky, V. et al., “Senescence of Activated Stellate Cells Limits Liver Fibrosis,” Cell, 134, 657-667 (Aug. 22, 2008), which is hereby incorporated by reference). Growing and senescent IMR-90 cells were incubated with different amounts of YT cells (NK cell line) in presence or absence of granule exocytosis pathway inhibitor Concanamycin A (CMA). […]

[5] = wild type mice after six week CCl4, treated 10 or 20 days following CCl4 withdrawal, compared to saline controls

In the case of “polyinosinic-polycytidylic acid [polyI:C]”, the “αSMA mRNA and protein levels in fibrotic livers (activated HSC marker)” value ([1]; quantitative RT-PCR and immunoblot, 10 days treatment after CCl4, compared to saline) was “decreased”, the “fibrosis / fibrotic tissue (Sirius Red staining)” value [1, 5] was “less fibrotic tissue; also recorded: depleted more efficiently” and the “senescent cells (SA-β-gal positive) in fibrotic liver” value [1, 5] was “fewer senescent cells; also recorded: enhanced clearance of senescent cells”.
With COc1cc([C@@H]2c3cc4c(cc3[C@@H](O[C@@H]3O[C@@H]5CO[C@@H](C)O[C@H]5[C@H](O)[C@H]3O)[C@H]3COC(=O)[C@H]23)OCO4)cc(OC)c1O [etoposide] the “senescence of activated HSCs (proliferation stop, SA-β-gal activity, heterochromatic foci)” value [2] was “undergo senescence”.
In the case of ClC(Cl)(Cl)Cl [CCl4], the “accumulation of senescent cells in livers of treated mice” value [3] was “accumulated in fibrotic livers”, the “increase in Sirius Red-positive area over untreated controls” value [3] was 3 to 4 fold and the “liver area Sirius Red-positive (quantitative laser scanning cytometry)” value [3] was “Approximately 2%”.
C/C=C/[C@H]1O[C@@](O)([C@@H](C)[C@H](O)[C@H](C)[C@H]2OC(=O)/C(OC)=C/C(C)=C/[C@@H](C)[C@@H](O)[C@@H](CC)[C@@H](O)[C@H](C)C/C(C)=C/C=C/[C@@H]2OC)C[C@@H](O[C@H]2C[C@@H](O)[C@H](OC(N)=O)[C@@H](C)O2)[C@@H]1C [CMA, Concanamycin A] was tested, and the “preferential killing of senescent cells by NK cells (YT) in presence of inhibitor” value [4] was “significantly inhibited”.
In the case of “3,5-diethoxycarbonyl-1,4-dihydrocollidine [DDC]”, the “accumulation of senescent cells in livers of treated mice” value [3] was “accumulated”.
